From patent US8475786B2, “Long-lasting absorption of flavonoids” (Nestec S.A., priority 2006, dated 2013)

Test: Plasma hesperetin levels after ingestion (FIG. 2)
Assay type: in vivo
From the text: FIG. 2 is a graph comparing the plasma hesperetin levels depending on whether hesperetin-7-glucoside alone is ingested, whether hesperidin alone is ingested or whether a composition according to the present invention is consumed.
Without wishing to be bound by theory, it is thought that this is due to the presence of enzymes which are able to cleave the glucose moiety off, such that hesperetin is readily absorbable.
Without wishing to be bound by theory, it is thought that this is due to the presence of enzymes able to cleave the rutinose moiety of hesperidin only at a later stage of passage through the gastro-intestinal tract.
Thus, the compositions of the present invention advantageously provide a plasma level of hesperetin which is sustained over a longer period of time (cf. FIG. 2).
Indeed, after the ingestion of the compositions of the present invention, the hesperetin plasma levels are maintained for a sustained period of time (FIG. 2).

plasma level of hesperetin (in vivo)	Compound	plasma level of hesperetin (after ingestion, FIG. 2)
–	COc1ccc([C@@H]2CC(=O)c3c(O)cc(O[C@@H]4O[C@H](CO[C@@H]5O[C@@H](C)[C@H](O)[C@@H](O)[C@H]5O)[C@@H](O)[C@H](O)[C@H]4O)cc3O2)cc1O [hesperidin]	appears only later and to a smaller extent
sharp peak shortly after ingestion	COc1ccc(C2CC(=O)c3c(O)cc(OC4OC(CO)C(O)C(O)C4O)cc3O2)cc1O (centres unmarked) [hesperetin-7-glucose, hesperetin-7-glucoside]	–
